{"source": "patent US20120004282A1", "about": "“RNA Interference Mediated Inhibition of the Intercellular Adhesion Molecule 1 (ICAM-1) Gene Expression Using Short Interfering Nucleic Acid (siNA)” (Merck Sharp & Dohme Corp,, priority 2009, published 2012)", "key": {"OAS1 mRNA": {"tested_on": "OAS1 mRNA", "test": "Endosomal TLR3 mediated immunostimulation, OAS1 mRNA increase in NHBE cells", "format": "cell-based, human", "settings": "Up to 100 nM, siNA formulated with delivery vehicle", "procedure": "A series of probes and primers were used for the detection of mRNA transcripts of ICAM-1, OAS1, and GAPDH (as control/normalisation) in the human cell lines. The assays were performed on an ABI 7900HT instrument according to the manufacturer's instructions.\nWith TaqMan data, critical threshold values (Ct) were converted to copy numbers corresponding to the particular gene analysed in each well of the 384 well plate. Six identical wells were prepared in each plate for a given treatment. […] Determination of the percentage coefficient of variation (CV) (% C.V.=[standard deviation/average]*100) allowed the omitting of wells whose value was an outlier (so that % C.V.<25). Relative abundance (aka relative expression) of a gene was determined by dividing the mean copy number of that gene with its GAPDH counterpart in that particular sample.\nCalu-1 or NHBE cell were treated as above in Example 2 and used for the measurement of endosomal TLR3 mediated immunostimulation, with the inclusion of polyI:C as a positive control for OAS1 mRNA upregulation. For the measurement of membrane bound TLR3 mediated immunostimulation the Calu 1 cells were cultured at 12000 cells/per 96 well and siNAs administered in PBS in the absence of a delivery vehicle at a concentration of 100 nM, 30 nM, 10 nM, 3 nM, 1 nM, and 0.3 nM.\nThe endosomal TLR3 mediated immunostimulation was also measured by recording the percent increase in OAS1 mRNA levels when the NHBE cells were transfected with the siNAs that had been formulated with the delivery vehicle (the Gemini surfactant GSC170 Dab—example 37 in WO03/82809) (percent increase in OAS1 mRNA levels relative to the Gemini delivery vehicle control). The TLR3 agonist Poly I: C is used as a positive control for OAS1 mRNA induction."}, "ICAM-1 protein": {"tested_on": "ICAM-1 protein", "test": "In situ ICAM-1 ELISA for surface ICAM-1 in INF-γ/TNF-α stimulated Calu-1 cells", "format": "cell-based, human", "settings": "relative to UC3", "procedure": "In a 96-well plate, 5,000 Calu-1 cells/well were seeded in 100 uL of complete growth media and incubated overnight at 37 C with 5% CO2. The cells were transfected with siNAs using RNAiMax (Invitrogen, Cat# 13778-150); final concentrations of siRNAs are 10 nM-0.0000097 nM. The amount of RNAiMax in each well is 0.3 uL. The siNAs were incubated for 6 hours. The medium was replaced with 95 uL of fresh complete growth medium and add 5 uL/well of INF-γ/TNF-α at 10 ng/ml final concentration. The cells were incubated for 24, 48, and 72 hours.\nIn situ ELISA for surface ICAM-1 was performed as follows. The cells were washed ×2 in PBS. The wells were pre-blocked with Super Block buffer (Pierce, Cat # 37535) for 1.5 hours at 37° C. The cells were washed ×3 with PBS. The primary monoclonal antibody (Abcam, clone MEM-111, Cat ab2213) was diluted at 1 in 3000 in Super Block buffer. 50 μl of primary antibody was added per well. The wells were shook gently at RT for 1 hour. The cells were washed ×3 with PBS. The rabbit polyclonal secondary antibody (Abcam, Cat ab6728)was diluted 1:1000 in Super Block buffer. 50 μl secondary antibody were added per well. The mixture was incubated at 37° C. for 1 hour. The cells were washed ×3 with PBS. 50 μl of TMB solution (Sigma, Cat# T-8665) was added per well and incubated in the dark for 10 minutes. 50 μl Stop solution was added. The absorbance was read at 450 nm.\nThe effects of siNAs on ICAM-1 protein level were compared to each other and to the effect of the universal control using a multiple comparison ANOVA test to obtain a 95% confidence interval.\nVarious siNAs were also evaluated for their potential to knock-down ICAM-1 protein using an ELISA assay. Six siNAs were tested in an ICAM-1 ELISA assay across a range of concentrations of siNAs. The absorbance of each sample was normalized to the average absorbance obtained from the wells that were not stimulated with INF-γ/TNF-α (n=6). These wells served as a background control (see Table 6)."}}, "note": "[invAb] = inverted abasic unit; m = 2'-O-methyl; r = 2'-OH (RNA); f = 2'-fluoro", "data": [{"substance": "29282-DC: siNA duplex, ICAM-1 target site 2113 (h); sense B cGcAucuGAucuGuAGucA TTB; antisense UGAcuAcAGAucAGAuGcGUU (sense CGCAUCUGAUCUGUAGUCATT; antisense UGACUACAGAUCAGAUGCGUU; sense: DNA at AGT, 2'-fluoro at CU, [invAb] at 5' end, 3' end, backbone not given here; antisense: sugars from the 5' end rrrffmfmmmffmmmfmfmmm, backbone not given here)", "values": [{"measurement": "Endosomal TLR3 mediated Immunostimulation OAS1 mRNA increase NHBE cells n = 3donors", "setting": "OAS1 mRNA", "value": "No significant effect"}, {"measurement": "ICAM-1 Protein % KD 24 h, 10 nM", "setting": "ICAM-1 protein", "value": 87, "unit": "%"}, {"measurement": "ICAM-1 Protein % KD 48 h, 10 nM", "setting": "ICAM-1 protein", "value": 64, "unit": "%"}, {"measurement": "ICAM-1 Protein % KD 72 h, 10 nM", "setting": "ICAM-1 protein", "value": 61, "unit": "%"}]}, {"substance": "29284-DC: siNA duplex, ICAM-1 target site 1141 (h); sense B cucAGucAGuGuGAccGcA TTB; antisense UGCGGucAcAcuGAcuGAGUU (sense CUCAGUCAGUGUGACCGCATT; antisense UGCGGUCACACUGACUGAGUU; sense: DNA at AGT, 2'-fluoro at CU, [invAb] at 5' end, 3' end, backbone not given here; antisense: sugars from the 5' end rrrmmffmfmffmmffmmmmm, backbone not given here)", "values": [{"measurement": "Endosomal TLR3 mediated Immunostimulation OAS1 mRNA increase NHBE cells n = 3donors", "setting": "OAS1 mRNA", "value": "No significant effect"}, {"measurement": "ICAM-1 Protein % KD 24 h, 10 nM", "setting": "ICAM-1 protein", "value": 64, "unit": "%"}, {"measurement": "ICAM-1 Protein % KD 48 h, 10 nM", "setting": "ICAM-1 protein", "value": 53, "unit": "%"}, {"measurement": "ICAM-1 Protein % KD 72 h, 10 nM", "setting": "ICAM-1 protein", "value": 44, "unit": "%"}]}, {"substance": "29285-DC: siNA duplex, ICAM-1 target site 537 (h); sense B GGAAcAAccGGAAGGuGuA TTB; antisense UACAccuuccGGuuGuuccUU (sense GGAACAACCGGAAGGUGUATT; antisense UACACCUUCCGGUUGUUCCUU; sense: DNA at AGT, 2'-fluoro at CU, [invAb] at 5' end, 3' end, backbone not given here; antisense: sugars from the 5' end rrrmffffffmmffmffffmm, backbone not given here)", "values": [{"measurement": "Endosomal TLR3 mediated Immunostimulation OAS1 mRNA increase NHBE cells n = 3donors", "setting": "OAS1 mRNA", "value": "No significant effect"}, {"measurement": "ICAM-1 Protein % KD 24 h, 10 nM", "setting": "ICAM-1 protein", "value": 59, "unit": "%"}, {"measurement": "ICAM-1 Protein % KD 48 h, 10 nM", "setting": "ICAM-1 protein", "value": 52, "unit": "%"}, {"measurement": "ICAM-1 Protein % KD 72 h, 10 nM", "setting": "ICAM-1 protein", "value": 36, "unit": "%"}]}, {"substance": "29286-DC: siNA duplex, ICAM-1 target site 1838 (h); sense B cGGAAGAucAAGAAAuAcA TTB; antisense UGUAuuucuuGAucuuccGUU (sense CGGAAGAUCAAGAAAUACATT; antisense UGUAUUUCUUGAUCUUCCGUU; sense: DNA at AGT, 2'-fluoro at CU, [invAb] at 5' end, 3' end, backbone not given here; antisense: sugars from the 5' end rrrmffffffmmffffffmmm, backbone not given here)", "values": [{"measurement": "Endosomal TLR3 mediated Immunostimulation OAS1 mRNA increase NHBE cells n = 3donors", "setting": "OAS1 mRNA", "value": "No significant effect"}, {"measurement": "ICAM-1 Protein % KD 24 h, 10 nM", "setting": "ICAM-1 protein", "value": 59, "unit": "%"}, {"measurement": "ICAM-1 Protein % KD 48 h, 10 nM", "setting": "ICAM-1 protein", "value": 54, "unit": "%"}, {"measurement": "ICAM-1 Protein % KD 72 h, 10 nM", "setting": "ICAM-1 protein", "value": 43, "unit": "%"}]}, {"substance": "29288-DC: siNA duplex, ICAM-1 target site 2046 (h); sense B cAuuGuccucAGucAGAuA TTB; antisense UAUcuGAcuGAGGAcAAuGUU (sense CAUUGUCCUCAGUCAGAUATT; antisense UAUCUGACUGAGGACAAUGUU; sense: DNA at AGT, 2'-fluoro at CU, [invAb] at 5' end, 3' end, backbone not given here; antisense: sugars from the 5' end rrrffmmffmmmmrfmmfmmm, backbone not given here)", "values": [{"measurement": "Endosomal TLR3 mediated Immunostimulation OAS1 mRNA increase NHBE cells n = 3donors", "setting": "OAS1 mRNA", "value": "No significant effect"}, {"measurement": "ICAM-1 Protein % KD 24 h, 10 nM", "setting": "ICAM-1 protein", "value": 52, "unit": "%"}, {"measurement": "ICAM-1 Protein % KD 48 h, 10 nM", "setting": "ICAM-1 protein", "value": 52, "unit": "%"}, {"measurement": "ICAM-1 Protein % KD 72 h, 10 nM", "setting": "ICAM-1 protein", "value": 47, "unit": "%"}]}, {"substance": "48722-DC: siNA duplex, ICAM-1 target site 2240 (h); sense B GAcAuAcAAcuGGGAAAuA TTB; antisense UAUuucccAGuuGuAuGucUU (sense GACAUACAACUGGGAAAUATT; antisense UAUUUCCCAGUUGUAUGUCUU; sense: DNA at AGT, 2'-fluoro at CU, [invAb] at 5' end, 3' end, backbone not given here; antisense: sugars from the 5' end rrrfffffmmffmfmfmffmm, backbone not given here)", "values": [{"measurement": "Endosomal TLR3 mediated Immunostimulation OAS1 mRNA increase NHBE cells n = 3donors", "setting": "OAS1 mRNA", "value": "No significant effect"}, {"measurement": "ICAM-1 Protein % KD 24 h, 10 nM", "setting": "ICAM-1 protein", "value": 71, "unit": "%"}, {"measurement": "ICAM-1 Protein % KD 48 h, 10 nM", "setting": "ICAM-1 protein", "value": 53, "unit": "%"}, {"measurement": "ICAM-1 Protein % KD 72 h, 10 nM", "setting": "ICAM-1 protein", "value": 43, "unit": "%"}]}]}
